Reference: patent publication US20240285727A1, “NOVEL THERAPEUTIC PEPTIDES FOR NEURODEGENERATION” (UNIVERSITY OF SOUTHERN CALIFORNIA, priority 2021, published 2024)

Tested on: SHSY5Y
Assay: Analogue screening assay, measured by MTT
Type: cell-based
Settings: as a percentage compared to SHMOOSE (SHMOOSE activity as 100%)
Excerpt: FIG. 10 depicts an analogue screening assay, measured by MTT. Top: each bar represents a fragment (25-amino acid in length) of SHMOOSE. Bottom: each bar represents a phosphomimetic fragment (25-amino acid in length) of SHMOOSE. Cell model is SHSY5Y. The Inventors made 103 analogues/derivatives (see Table 1).
The Inventors made 103 analogues (Table 1). Referring to FIG. 10, in the top figure, each bar represents a 25-amino acid fragment of the SHMOOSE peptide. […] The sequence length of the analogue is 14 amino acids and 3 different analysis windows of the analogue, each having 11 amino acids, were characterized. […]

Row | Substance | % Efficacy [%]
1 | 62 (NDDPLVLGPKNFGADPNKDNNHAHD) [compound 62] | −250.35
2 | 16 (NSYPLVLGPKNFGATPNKSNNHAHY) [compound 16] | −79.03
3 | 70 (PKNFGADPNKDNNHAHDDNHPNPDF) [compound 70] | −157.35
4 | 73 (FGADPNKDNNHAHDDNHPNPDFPND) [compound 73] | −306.02
5 | 86 (GADPNKDNNHAHDDNHPNPNFPNDP) [compound 86] | −62.75
6 | 45 (KSNNHAHYYNHPNPNFPNSPHPYHP) [compound 45] | −292.14
7 | 65 (PLVLGPKNFGADPNKDNNHAHDDNH) [compound 65] | −163.31
8 | 85 (FGADPNKDNNHAHDDNHPNPNFPND) [compound 85] | −476.83
9 | 107 (MPSCLTTWISSIISDNSYPLVLGPKNFGATPNKSNNHAHYYNHPNPDFPNSPHPYHPR) [compound 107] | 134.2
10 | 68 (LGPKNFGADPNKDNNHAHDDNHPNP) [compound 68] | −144.36
11 | 57 (QLLKDNDDPLVLGPKNFGADPNKDN) [compound 57] | −1.36
12 | 31 (PNKSNNHAHYYNHPNPDFPNSPHPY) [compound 31] | −477.36
13 | 1 (MPPCLTTWLSQLLKDNSYPLVLGPK) [compound 1] | 62.23
14 | 11 (QLLKDNSYPLVLGPKNFGATPNKSN) [compound 11] | −85.19
15 | 97 (MPPCITTWLSQLLKDNSYPLVLGPKNFGATPNKSNNHAHYYNHPNPDFPNSPHPYHPR) [compound 97] | −1.709
16 | 4 (CLTTWLSQLLKDNSYPLVLGPKNFG) [compound 4] | 12.47
17 | 58 (LLKDNDDPLVLGPKNFGADPNKDNN) [compound 58] | −58.59
18 | 27 (FGATPNKSNNHAHYYNHPNPDFPNS) [compound 27] | −226.16
19 | 91 (KDNNHAHDDNHPNPNFPNDPHPDHP) [compound 91] | −104.32
20 | 81 (GPKNFGADPNKDNNHAHDDNHPNPN) [compound 81] | −172.67
21 | 80 (DNNHAHDDNHPNPDFPNDPHPDHPR) [compound 80] | −214.13
22 | 100 (MPPCITTWISQIIKDNSYPLVLGPKNFGATPNKSNNHAHYYNHPNPDFPNSPHPYHPR) [compound 100] | 4.274
23 | 52 (DDWLDQLLKDNDDPLVLGPKNFGAD) [compound 52] | −38.98
24 | 54 (WLDQLLKDNDDPLVLGPKNFGADPN) [compound 54] | −45.99

Row | Substance | % Efficacy [%]
25 | 8 (WLSQLLKDNSYPLVLGPKNFGATPN) [compound 8] | −3.65
26 | 50 (CLDDWLDQLLKDNDDPLVLGPKNFG) [compound 50] | −340.42
27 | 101 (MPPCLTTWISQIIKDNSYPLVLGPKNFGATPNKSNNHAHYYNHPNPDFPNSPHPYHPR) [compound 101] | −10.26
28 | 32 (NKSNNHAHYYNHPNPDFPNSPHPYH) [compound 32] | −145.56
29 | 38 (NFGATPNKSNNHAHYYNHPNPNFPN) [compound 38] | −196.67
30 | 18 (YPLVLGPKNFGATPNKSNNHAHYYN) [compound 18] | −133.09
31 | 10 (SQLLKDNSYPLVLGPKNFGATPNKS) [compound 10] | −107.19
32 | 48 (PPCLDDWLDQLLKDNDDPLVLGPKN) [compound 48] | −159.22
33 | 25 (KNFGATPNKSNNHAHYYNHPNPDFP) [compound 25] | −8.52
34 | 24 (PKNFGATPNKSNNHAHYYNHPNPDF) [compound 24] | −185.28
35 | 35 (GPKNFGATPNKSNNHAHYYNHPNPN) [compound 35] | 8.68
36 | 46 (SNNHAHYYNHPNPNFPNSPHPYHPR) [compound 46] | −59.27
37 | 28 (GATPNKSNNHAHYYNHPNPDFPNSP) [compound 28] | −229.42
38 | 105 (MPSCLTTWLSSLLKDNSYPLVLGPKNFGATPNKSNNHAHYYNHPNPDFPNSPHPYHPR) [compound 105] | 44.44
39 | 17 (SYPLVLGPKNFGATPNKSNNHAHYY) [compound 17] | −195.89
40 | 37 (KNFGATPNKSNNHAHYYNHPNPNFP) [compound 37] | −227.50
41 | 6 (TTWLSQLLKDNSYPLVLGPKNFGAT) [compound 6] | −42.74
42 | 74 (GADPNKDNNHAHDDNHPNPDFPNDP) [compound 74] | −228.29
43 | 20 (LVLGPKNFGATPNKSNNHAHYYNHP) [compound 20] | −248.54
44 | 7 (TWLSQLLKDNSYPLVLGPKNFGATP) [compound 7] | −113.24
45 | 22 (LGPKNFGATPNKSNNHAHYYNHPNP) [compound 22] | −140.81
46 | 9 (LSQLLKDNSYPLVLGPKNFGATPNK) [compound 9] | −82.17
47 | 103 (MPPCLTTWLSQLIKDNSYPLVLGPKNFGATPNKSNNHAHYYNHPNPDFPNSPHPYHPR) [compound 103] | 86.32
48 | 14 (KDNSYPLVLGPKNFGATPNKSNNHA) [compound 14] | −147.96

Row | Substance | % Efficacy [%]
49 | 51 (LDDWLDQLLKDNDDPLVLGPKNFGA) [compound 51] | −132.69
50 | 40 (GATPNKSNNHAHYYNHPNPNFPNSP) [compound 40] | −302.11
51 | 69 (GPKNFGADPNKDNNHAHDDNHPNPD) [compound 69] | −184.35
52 | 15 (DNSYPLVLGPKNFGATPNKSNNHAH) [compound 15] | 51.51
53 | 47 (MPPCLDDWLDQLLKDNDDPLVLGPK) [compound 47] | −150.17
54 | 53 (DWLDQLLKDNDDPLVLGPKNFGADP) [compound 53] | −76.54
55 | 71 (KNFGADPNKDNNHAHDDNHPNPDFP) [compound 71] | −113.32
56 | 36 (PKNFGATPNKSNNHAHYYNHPNPNF) [compound 36] | −120.40
57 | 104 (MPSCLTTWLSQLLKDNSYPLVLGPKNFGATPNKSNNHAHYYNHPNPDFPNSPHPYHPR) [compound 104] | 82.05
58 | 92 (DNNHAHDDNHPNPNFPNDPHPDHPR) [compound 92] | −85.47
59 | 33 (KSNNHAHYYNHPNPDFPNSPHPYHP) [compound 33] | −119.66
60 | 55 (LDQLLKDNDDPLVLGPKNFGADPNK) [compound 55] | −38.64
61 | 29 (ATPNKSNNHAHYYNHPNPDFPNSPH) [compound 29] | −262.37
62 | 106 (MPSCLTTWLSSLLSDNSYPLVLGPKNFGATPNKSNNHAHYYNHPNPDFPNSPHPYHPR) [compound 106] | −14.53
63 | 79 (KDNNHAHDDNHPNPDFPNDPHPDHP) [compound 79] | −183.31
64 | 66 (LVLGPKNFGADPNKDNNHAHDDNHP) [compound 66] | −157.61
65 | 82 (PKNFGADPNKDNNHAHDDNHPNPNF) [compound 82] | −146.18
66 | 78 (NKDNNHAHDDNHPNPDFPNDPHPDH) [compound 78] | −240.90
67 | 90 (NKDNNHAHDDNHPNPNFPNDPHPDH) [compound 90] | −226.81
68 | 49 (PCLDDWLDQLLKDNDDPLVLGPKNF) [compound 49] | −168.90
69 | 34 (SNNHAHYYNHPNPDFPNSPHPYHPR) [compound 34] | −195.91
70 | 21 (VLGPKNFGATPNKSNNHAHYYNHPN) [compound 21] | −50.24
71 | 63 (DDPLVLGPKNFGADPNKDNNHAHDD) [compound 63] | −216.49
72 | 5 (LTTWLSQLLKDNSYPLVLGPKNFGA) [compound 5] | −13.61

Row | Substance | % Efficacy [%]
73 | 64 (DPLVLGPKNFGADPNKDNNHAHDDN) [compound 64] | −254.41
74 | 26 (NFGATPNKSNNHAHYYNHPNPDFPN) [compound 26] | −232.44
75 | 88 (DPNKDNNHAHDDNHPNPNFPNDPHP) [compound 88] | −84.19
76 | 60 (KDNDDPLVLGPKNFGADPNKDNNHA) [compound 60] | −146.91
77 | 30 (TPNKSNNHAHYYNHPNPDFPNSPHP) [compound 30] | −367.82
78 | 76 (DPNKDNNHAHDDNHPNPDFPNDPHP) [compound 76] | −184.63
79 | 13 (LKDNSYPLVLGPKNFGATPNKSNNH) [compound 13] | −58.60
80 | 42 (TPNKSNNHAHYYNHPNPNFPNSPHP) [compound 42] | −392.68
81 | 75 (ADPNKDNNHAHDDNHPNPDFPNDPH) [compound 75] | −157.10
82 | 3 (PCLTTWLSQLLKDNSYPLVLGPKNF) [compound 3] | 115.35
83 | 99 (MPPCITTWISQILKDNSYPLVLGPKNFGATPNKSNNHAHYYNHPNPDFPNSPHPYHPR) [compound 99] | −7.692
84 | 12 (LLKDNSYPLVLGPKNFGATPNKSNN) [compound 12] | −97.85
85 | 23 (GPKNFGATPNKSNNHAHYYNHPNPD) [compound 23] | −210.91
86 | 98 (MPPCITTWISQLLKDNSYPLVLGPKNFGATPNKSNNHAHYYNHPNPDFPNSPHPYHPR) [compound 98] | 1.709
87 | 19 (PLVLGPKNFGATPNKSNNHAHYYNH) [compound 19] | −191.36
88 | 2 (PPCLTTWLSQLLKDNSYPLVLGPKN) [compound 2] | 37.99
89 | 41 (ATPNKSNNHAHYYNHPNPNFPNSPH) [compound 41] | −188.45
90 | 84 (NFGADPNKDNNHAHDDNHPNPNFPN) [compound 84] | −84.90
91 | 67 (VLGPKNFGADPNKDNNHAHDDNHPN) [compound 67] | −231.08
92 | 102 (MPPCLTTWLSQIIKDNSYPLVLGPKNFGATPNKSNNHAHYYNHPNPDFPNSPHPYHPR) [compound 102] | −25.64
93 | 56 (DQLLKDNDDPLVLGPKNFGADPNKD) [compound 56] | −93.30
